Laboratory results published in paper PMC10375536, “Discovery of High-Affinity Amyloid Ligands Using a Ligand-Based Virtual Screening Pipeline” (Journal of the American Chemical Society, 2023).
Like-named read-outs stand apart in the source and are kept apart here.

Key:
Aβ(1-42) [1] = conditions: cited from earlier work
Aβ(1-42) [2] = conditions: cited from earlier work; remark: listed apart in the source
Aβ(1–42) fibrils = molecular target: T1, Aβ(1–42) fibrils (Homo sapiens, UniProt P05067); assay: Thioflavin T (ThT) fluorescence competition assay; assay type: binding; conditions: for ThT displacement in competition screen: Aβ(1–42) fibrils (250 nM); for ThT displacement in competition screen / Kd: ThT (1.0 μM), 1× PBS pH 7.4, 25 °C; for Kd: Aβ(1–42) fibrils (500 nM)
T1 construct: Monomeric Aβ(1-42) (1 mg: Rockland Immunochemicals, Limerick, PA, Lot #31541); purchased Rockland Immunochemicals, Limerick, PA Lot #31541 (a lot number; no catalogue number given)

[3] = against [3H]BF-227, ref 10.1177/1536012118796297
[4] = against [125I]BF-180, ref 10.1523/JNEUROSCI.4456-03.2004
[5] = against [125I]BF-180, ref 10.1385/JMN:24:2:247
[6] = against [125I]BF-180, ref 10.1523/JNEUROSCI.1738-05.2005
[7] = against [125I]IMSB, ref 10.1016/j.bmcl.2011.08.003
[8] = against [125I]IMSB, ref 10.1021/jm010045q
[9] = average of fits from at least three independent experiments, read-out: Kd/nM
[10] = read-out: –log(Kd/M) (converted)
[11] = direct binding, ref 10.1007/s00259-012-2261-2
[12] = direct binding, ref 10.1021/jm010045q

T1 sequence (P05067 672-713 limits assumed): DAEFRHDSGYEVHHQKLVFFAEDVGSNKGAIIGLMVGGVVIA

Structure (SMILES): COCCOCCOCCOC(=O)/C(C#N)=C/c1ccc2cc(N3CCCCC3)ccc2c1 [ANCA-11]
- Kd (Aβ(1-42) [1]; direct binding, ref 10.1021/cn200018v): 1.4 µM

Structure (SMILES): CNc1ccc(/C=C/c2ccc(OCCOCCOCCF)nc2)cc1 [AV-45, Florbetapir]
- Ki (Aβ(1-42) [2]; [3]): 0.012 µM

Structure (SMILES): Cc1cc(/C=C/c2ccc(N(C)C)cc2)n2c1C=C1C=CC=[N+]1[B-]2(F)F [BAP-1]
- Kd (Aβ(1-42) [1]; direct binding, ref 10.1021/cn3000058): 0.0441 µM

Structure (SMILES): CCN(CC)c1ccc(/C=C/c2nc3ccccc3o2)cc1 [BF-125]
- Ki (Aβ(1-42) [2]; [4]): 0.0049 µM

Structure (SMILES): Nc1ccc(/C=C/c2nc3cc(F)ccc3o2)cc1 [BF-140]
- Ki (Aβ(1-42) [2]; [5]): 0.0021 µM

Structure (SMILES): CNc1ccc(/C=C/c2nc3cc(F)ccc3o2)cc1 [BF-145]
- Ki (Aβ(1-42) [2]; [5]): 0.0045 µM

Structure (SMILES): CNc1ccc(-c2ccc3ccccc3n2)cc1 [BF-158]
- Ki (Aβ(1-42) [2]; [6]): > 5 µM

Structure (SMILES): CNc1ccc(/C=C/c2nc3ccc(OCCF)cc3o2)cc1 [BF-168]
- Ki (Aβ(1-42) [2]; [4]): 0.0064 µM

Structure (SMILES): Nc1ccc(-c2ccc3ccccc3n2)cc1 [BF-170]
- Ki (Aβ(1-42) [2]; [6]): > 5 µM

Structure (SMILES): CNc1ccc(/C=C/c2nc3cc(I)ccc3o2)cc1 [BF-180]
- Kd (Aβ(1-42) [1]; direct binding, ref 10.1523/JNEUROSCI.4456-03.2004): 0.0106 µM

Structure (SMILES): CN(C)c1ncc(/C=C/c2nc3ccc(OCCF)cc3o2)s1 [BF-227]
- Ki (Aβ(1-42) [2]; [3]): 0.012 µM
- Ki (Aβ(1-42) [2]; against [125I]BF-180, ref 10.2967/jnumed.106.037556): 0.0043 µM
- Kd (Aβ(1-42) [1]; direct binding, ref 10.1177/1536012118796297): 0.0157 µM
- Kd (Aβ(1-42) [1]; two-site model, Site 1, ref 10.1007/s00259-012-2261-2): 0.00172 µM
- Kd (Aβ(1-42) [1]; two-site model, Site 1, ref 10.1016/j.ejphar.2009.06.042): 0.00131 µM
- Kd (Aβ(1-42) [1]; two-site model, Site 1, ref 10.1021/acs.molpharmaceut.8b00229): 0.00082 µM
- Kd (Aβ(1-42) [1]; two-site model, Site 2, ref 10.1007/s00259-012-2261-2): 0.0561 µM
- Kd (Aβ(1-42) [1]; two-site model, Site 2, ref 10.1016/j.ejphar.2009.06.042): 0.08 µM
- Kd (Aβ(1-42) [1]; two-site model, Site 2, ref 10.1021/acs.molpharmaceut.8b00229): 0.125 µM

Structure (SMILES): O=C(O)c1cc(/N=N/c2ccc(-c3ccc(/N=N/c4ccc(O)c(C(=O)O)c4)cc3)cc2)ccc1O [CG]
- Ki (Aβ(1-42) [2]; [7]): 0.00043 µM
- Ki (Aβ(1-42) [2]; [8]): 0.0004 µM

Structure (SMILES): Oc1c(I)cc(Cl)c2cccnc12 [CQ]
- Kd (Aβ(1-42) [1]; direct binding, ref 10.1016/j.bios.2017.06.030): 0.086 µM

Structure (SMILES): C#CCN(C)CCCOc1ccc(Cl)cc1Cl [Clorgyline]
- Ki (Aβ(1-42) [2]; [3]): > 9 µM

Structure (SMILES): COc1cc(/C=C/C(=O)CC(=O)/C=C/c2ccc(O)c(OC)c2)ccc1O [Curcumin]
- Ki (Aβ(1-42) [2]; [7]): 0.00357 µM

Structure (SMILES): CN(CCCCc1ccccc1)C(=O)Nc1ccc2c(c1)OCC(=O)N2C [E163]
- ThT displacement in competition screen (Aβ(1–42) fibrils): displaced the greatest quantity of ThT
- Kd (Aβ(1–42) fibrils; [9]): 200 ± 100 nM
- Kd (Aβ(1–42) fibrils; [10]): 158 nM

Structure (SMILES): Cc1ccc(C)c2c(C)c(C(=O)N3CCCc4c(OCC(N)=O)cccc43)oc12 [E197]
- ThT displacement in competition screen (Aβ(1–42) fibrils): displaced the greatest quantity of ThT
- Kd (Aβ(1–42) fibrils; [9]): 600 ± 300 nM
- Kd (Aβ(1–42) fibrils; [10]): 501 nM

Structure (SMILES): CCOc1ccc(CCN(C)C(=O)Nc2ccc3c(c2)CCC(=O)N3C)cc1 [E363]
- ThT displacement in competition screen (Aβ(1–42) fibrils): displaced the greatest quantity of ThT
- Kd (Aβ(1–42) fibrils; [9]): 20 ± 10 nM
- Kd (Aβ(1–42) fibrils; [10]): 25.1 nM

Structure (SMILES): CCOc1ccccc1OCC(=O)Nc1ccc(-c2ncc3n2CCCC3)cc1 [E570]
- ThT displacement in competition screen (Aβ(1–42) fibrils): displaced the greatest quantity of ThT
- Kd (Aβ(1–42) fibrils; [9]): 20 ± 10 nM
- Kd (Aβ(1–42) fibrils; [10]): 25.1 nM
- bound ThT displaced (Aβ(1–42) fibrils; titration into Aβ(1–42) fibrils (500 nM) and ThT (1.0 μM)): about half

Structure (SMILES): COc1cc(F)c(C(C)NC(=O)NCCN2c3ccccc3CC2C)cc1OC (stereo not shown) [E704]
- ThT displacement in competition screen (Aβ(1–42) fibrils): displaced the greatest quantity of ThT
- Kd (Aβ(1–42) fibrils; [9]): 56 ± 6 nM

Structure (SMILES): CC(=C(C#N)C#N)c1ccc2cc(N(C)CCF)ccc2c1 [FDDNP]
- Kd (Aβ(1-42) [1]; [11]): 0.00552 µM

Structure (SMILES): CN(C)c1ccc(/N=N/c2nc3ccc(OCCOCCOCCF)cc3s2)cc1 [FPPDB]
- Ki (Aβ(1-42) [2]; against ThS, ref 10.1021/ml200230e): 0.02 µM

Structure (SMILES): CNc1ccc(-c2cc3cc(O)ccc3o2)c(F)n1 [Flutafuranol]
- Ki (Aβ(1-42) [2]; [3]): 0.042 µM

Structure (SMILES): CNc1ccc(-c2nc3ccc(O)cc3s2)cc1F [Flutemetamol]
- Ki (Aβ(1-42) [2]; [3]): 0.065 µM

Structure (SMILES): Cc1cc(-c2ccc(/N=N/c3ccc4c(S(=O)(=O)O)cc(S(=O)(=O)O)c(N)c4c3O)c(C)c2)ccc1/N=N/c1ccc2c(S(=O)(=O)O)cc(S(=O)(=O)O)c(N)c2c1O [Honson2b (Evan's blue), Evan's blue]
- Ki (Aβ(1-42) [2]; against ThS, ref 10.1016/j.nbd.2007.07.018): 0.18 µM

Structure (SMILES): CN(C)c1ccc(-c2ccc3cc(-c4nc5ccccc5s4)c(=N)oc3c2)cc1 [ICTAD-1]
- Kd (Aβ(1-42) [1]; direct binding, ref 10.1039/d0sc02060e): 3.78 µM

Structure (SMILES): COc1ccc(C=Cc2ccc(C=Cc3ccc(OC)c(C(=O)O)c3)c(I)c2)cc1C(=O)O [IMSB]
- Ki (Aβ(1-42) [2]; [8]): 0.0008 µM
- Kd (Aβ(1-42) [1]; direct binding, ref 10.1021/ja0167147): 0.00073 µM

Structure (SMILES): Cc1c(OCC(F)(F)F)ccnc1C[S+]([O-])c1nc2ccccc2[nH]1 (stereo not shown) [LNS]
- Kd (Aβ(1-42) [1]; direct binding, ref 10.1021/cn500103u): 0.011 µM

Structure (SMILES): CC(C)CC1=[O+][B-](F)(F)OC(/C=C/c2ccc3cc(N(C)C)ccc3c2)=C1 [NAP-OB]
- Kd (Aβ(1-42) [1]; direct binding, ref 10.1016/j.bioactmat.2021.10.047): 0.00062 µM

Structure (SMILES): CN(C)c1ccc(/C=C/c2nc3ccc(I)cc3[nH]2)cc1 [SBIM-3]
- Kd (Aβ(1-42) [1]; direct binding, ref 10.1016/j.bmc.2013.02.054): 0.82 µM

Structure (SMILES): COCCOCCn1c2ccccc2c2cc(/C=C/c3cc[n+](C)c4ccccc34)ccc21 [SLM]
- Kd (Aβ(1-42) [1]; direct binding, ref 10.1021/acsomega.8b00475): 11.4 µM

Structure (SMILES): CN(C)c1ccc(/C=C/c2ccc3ccc(OCCF)cc3n2)cc1 [SQ3]
- Ki (Aβ(1-42) [2]; against [125I]ISQ, ref 10.1021/acsmedchemlett.2c00279): 0.23 µM

Structure (SMILES): Nc1ccc(-c2ccc3cc(OCCF)ccc3n2)cc1 [THK-523]
- Kd (Aβ(1-42) [1]; [11]): 0.0303 µM
- Kd (Aβ(1-42) [1]; direct binding, ref 10.1093/brain/awr038): 0.0207 µM

Structure (SMILES): CN(C)c1ccc(-c2ccc3cc(OCC(O)CF)ccc3n2)cc1 (stereo not shown) [THK-5105]
- Kd (Aβ(1-42) [1]; direct binding, ref 10.2967/jnumed.112.117341): 0.0359 µM

Structure (SMILES): CN(C)c1ccc(-c2nc3ccc(I)cc3s2)cc1 [TZDM]
- Ki (Aβ(1-42) [2]; [8]): > 5 µM
- Kd (Aβ(1-42) [1]; [12]): 0.00014 µM

Structure (SMILES): Cc1ccc2c(c1)sc(-c1ccc(N(C)C)cc1)[n+]2C [ThT, Thioflavin T]
- Ki (Aβ(1-42) [2]; [8]): > 4 µM
- Kd (Aβ(1-42) [1]; direct binding, ref 10.1002/chem.201800501): 0.665 µM
- Kd (Aβ(1-42) [1]; direct binding, ref 10.1016/j.bmc.2011.09.065): 2.56 µM
- Kd (Aβ(1-42) [1]; direct binding, ref 10.1021/acs.analchem.2c02532): 0.117 µM
- Kd (Aβ(1-42) [1]; direct binding, ref 10.1021/acs.jmedchem.5b00571): 0.032 µM
- Kd (Aβ(1-42) [1]; direct binding, ref 10.1021/acschemneuro.6b00380): 1.94 µM
- Kd (Aβ(1-42) [1]; direct binding, ref 10.1021/acschemneuro.6b00450): 0.43 µM

Structure (SMILES): CC1(C)C(/C=C/C2=C(c3ccc(CCC(=O)O)cc3)C(=C/C=C3/N(CCC[N+](C)(C)C)c4ccc(S(=O)(=O)O)cc4C3(C)C)/CCC2)=[N+](CCC[N+](C)(C)C)c2ccc(S(=O)(=O)O)cc21 [ZW800-1C]
- Kd (Aβ(1-42) [1]; direct binding, ref 10.1038/s41551-023-01003-7): 0.0789 µM

Structure (SMILES): CN(C)c1ccc(-c2cc(-c3ccnc(Br)c3)[nH]n2)cc1 [[11C]MODAG-001]
- Kd (Aβ(1-42) [1]; direct binding, ref 10.1007/s00259-020-05133-x): 0.02 µM

Structure (SMILES): CN(C)c1ccc(/N=N/c2nc3ccc(OCCOCCOCCF)cc3s2)cc1 [[18F]FPPDB]
- Kd (Aβ(1-42) [1]; direct binding, ref 10.1021/ml200230e): 0.0454 µM

Structure (SMILES): CN(C)c1ccc(C=CC(=O)c2ccc(I)cc2)cc1 [[125I]DMIC]
- Kd (Aβ(1-42) [1]; direct binding, ref 10.1016/j.bmc.2007.07.052): 0.0042 µM

Structure (SMILES): COc1ccc(/C=C/c2ccc(/C=C/c3ccc(OC)c(C(=O)O)c3)c(I)c2)cc1C(=O)O [[125I]IMSB]
- Kd (Aβ(1-42) [1]; [12]): 0.00073 µM

Structure (SMILES): O=[N+]([O-])c1ccc2c(c1)Sc1cc(OC/C=C/I)ccc1N2 [[125I]SIL23]
- Kd (Aβ(1-42) [1]; direct binding, ref 10.1371/journal.pone.0055031): 0.635 µM

Structure (SMILES): CN(C)c1ccc(-c2nc3ccc(I)cc3s2)cc1 [[125I]TZDM]
- Kd (Aβ(1-42) [1]; direct binding, ref 10.1016/j.bmc.2011.03.029): 0.00045 µM
- Kd (Aβ(1-42) [1]; direct binding, ref 10.5012/bkcs.2008.29.9.1765): 0.00013 µM

Structure (SMILES): O=C(O)c1cc(C=Cc2ccc(C=Cc3ccc(O)c(C(=O)O)c3)c(I)c2)ccc1O [[125]ISB]
- Kd (Aβ(1-42) [1]; [12]): 0.00015 µM
